Assay results published in the NIST ThermoML archive (doi:10.1016/j.tca.2013.03.025).

Assay: xn = mol fraction of the nth substance listed
Details: 101 kPa, Liquid; for viscosity: Concentric cylinders viscometry; for mass density: Vibrating tube method

CCCCOC(=O)C(C)O (stereo not given) [butyl 2-hydroxypropanoate] + CC(O)CO
Details	mass density [kg/m3]	viscosity [mPa·s]
288.15 K, x1 = 0.0999	1028.94	49.57
288.15 K, x1 = 0.2	1020.52	32.76
288.15 K, x1 = 0.3	1014.01	22.44
288.15 K, x1 = 0.3999	1008.69	16.49
288.15 K, x1 = 0.4998	1004.11	12.5
288.15 K, x1 = 0.6	999.883	9.662
288.15 K, x1 = 0.6996	996.116	7.754
288.15 K, x1 = 0.7999	992.836	6.357
288.15 K, x1 = 0.9	990.017	5.352
288.15 K, x1 = 1	987.269	4.628
293.15 K, x1 = 0.0999	1025.09	36.74
293.15 K, x1 = 0.2	1016.49	24.82
293.15 K, x1 = 0.3	1009.81	17.35
293.15 K, x1 = 0.3999	1004.36	12.96
293.15 K, x1 = 0.4998	999.672	9.963
293.15 K, x1 = 0.6	995.344	7.814
293.15 K, x1 = 0.6996	991.481	6.325
293.15 K, x1 = 0.7999	988.111	5.256
293.15 K, x1 = 0.9	985.199	4.454
293.15 K, x1 = 1	982.366	3.88
298.15 K, x1 = 0.0999	1021.19	27.81
298.15 K, x1 = 0.2	1012.41	19.18
298.15 K, x1 = 0.3	1005.65	13.58
298.15 K, x1 = 0.3999	1000	10.3
298.15 K, x1 = 0.4998	995.208	8.084
298.15 K, x1 = 0.6	990.768	6.393
298.15 K, x1 = 0.6996	986.821	5.252
298.15 K, x1 = 0.7999	983.363	4.394
298.15 K, x1 = 0.9	980.366	3.772
298.15 K, x1 = 1	977.448	3.307
303.15 K, x1 = 0.0999	1017.29	21.45
303.15 K, x1 = 0.2	1008.34	15.08
303.15 K, x1 = 0.3	1001.42	10.86
303.15 K, x1 = 0.3999	995.637	8.42
303.15 K, x1 = 0.4998	990.737	6.606
303.15 K, x1 = 0.6	986.189	5.339
303.15 K, x1 = 0.6996	982.143	4.426
303.15 K, x1 = 0.7999	978.595	3.741
303.15 K, x1 = 0.9	975.512	3.226
303.15 K, x1 = 1	972.515	2.86
308.15 K, x1 = 0.0999	1013.34	16.82
308.15 K, x1 = 0.2	1004.23	12.05
308.15 K, x1 = 0.3	997.153	8.886
308.15 K, x1 = 0.3999	991.238	6.935
308.15 K, x1 = 0.4998	986.236	5.542
308.15 K, x1 = 0.6	981.583	4.506
308.15 K, x1 = 0.6996	977.444	3.772
308.15 K, x1 = 0.7999	973.812	3.212
308.15 K, x1 = 0.9	970.644	2.796
308.15 K, x1 = 1	967.567	2.481
313.15 K, x1 = 0.0999	1009.36	13.4
313.15 K, x1 = 0.2	1000.07	9.766
313.15 K, x1 = 0.3	992.852	7.317
313.15 K, x1 = 0.3999	986.813	5.772
313.15 K, x1 = 0.4998	981.71	4.666
313.15 K, x1 = 0.6	976.954	3.848
313.15 K, x1 = 0.6996	972.719	3.25
313.15 K, x1 = 0.7999	969.003	2.791
313.15 K, x1 = 0.9	965.755	2.449
313.15 K, x1 = 1	962.603	2.181
318.15 K, x1 = 0.0999	1005.34	10.83
318.15 K, x1 = 0.2	995.893	8.021
318.15 K, x1 = 0.3	988.531	6.099
318.15 K, x1 = 0.3999	982.364	4.873
318.15 K, x1 = 0.4998	977.162	3.982
318.15 K, x1 = 0.6	972.304	3.319
318.15 K, x1 = 0.6996	967.975	2.828
318.15 K, x1 = 0.7999	964.179	2.449
318.15 K, x1 = 0.9	960.848	2.163
318.15 K, x1 = 1	957.624	1.935
323.15 K, x1 = 0.0999	1001.29	8.864
323.15 K, x1 = 0.2	991.678	6.665
323.15 K, x1 = 0.3	984.178	5.141
323.15 K, x1 = 0.3999	978.01	4.159
323.15 K, x1 = 0.4998	972.59	3.435
323.15 K, x1 = 0.6	967.647	2.889
323.15 K, x1 = 0.6996	963.208	2.483
323.15 K, x1 = 0.7999	959.336	2.166
323.15 K, x1 = 0.9	955.922	1.924
323.15 K, x1 = 1	952.631	1.728
